IC50 data for 31 compounds are collected here from patent US20230373989A1, “N-PHENYLAMINOCARBONYL PYRIDINO-, PYRIMIDINO AND BENZO-TROPANES AS MODULATORS OF GPR65” (PATHIOS THERAPEUTICS LIMITED, priority 2020, published 2023).

Molecules are shown by their SMILES. Read-outs that look alike come from different tables or passages of the source.

As usually defined, the IC50 is the concentration that gives 50% inhibition.

This experiment has as its target T1, human recombinant GPR65 (Homo sapiens, UniProt Q8IYL9).
T1 construct: host or cells: 1321N1 human astrocytoma cells (1321N1-hrGPR65)
Kind of experiment: Human GPR65 cAMP HTRF antagonist assay. The experiment is classed as cell-based. The method in brief: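 1321N1 astrocytoma cells stably expressing GPR65 were preincubated with compound for 30 min at room temperature in KRH pH 7.6 with 1 mM IBMX and 200 μM EDTA. They were then stimulated at assay pH 7.2 for 30 min, with controls at pH 7.9. cAMP was read by HTRF (665/620 nm), normalised to controls and fitted by 4-parameter logistic to give IC50.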

The mark [1] stands for this setting: 1321N1-hrGPR65 cells, assay pH 7.2, cAMP HTRF, read-out: hGPR65 IC50 (activity class).

T1 sequence (Q8IYL9 whole entry): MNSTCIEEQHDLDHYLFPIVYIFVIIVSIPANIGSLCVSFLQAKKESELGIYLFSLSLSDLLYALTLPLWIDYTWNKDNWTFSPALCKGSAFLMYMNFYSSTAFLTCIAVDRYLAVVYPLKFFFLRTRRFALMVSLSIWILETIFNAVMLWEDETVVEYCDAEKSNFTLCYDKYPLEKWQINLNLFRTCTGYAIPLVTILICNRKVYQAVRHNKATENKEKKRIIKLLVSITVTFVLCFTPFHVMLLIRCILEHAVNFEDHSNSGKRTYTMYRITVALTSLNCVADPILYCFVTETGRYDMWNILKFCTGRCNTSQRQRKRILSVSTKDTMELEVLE

Consider `O=C(Nc1ccc(Cl)c(Cl)c1)N1C2CCC1c1ccnc(Br)c1C2` (racemic) [Compound 148, (±)-1-Bromo-N-(3,4-dichlorophenyl)-6,7,8,9-tetrahydro-5H-5,8-epiminocyclohepta[c]pyridine-10-carboxamide], for which, under setting [1], the IC50 was 500 to 5000 nM.

On to `COc1cc(NC(=O)N2C3CCC2c2ccnc(F)c2C3)ccc1-c1cnco1` (racemic) [Compound 152, (±)-1-Fluoro-N-(3-methoxy-4-(oxazol-5-yl)phenyl)-6,7,8,9-tetrahydro-5H-5,8-epiminocyclohepta[c]pyridine-10-carboxamide], for which the IC50 under setting [1] is 500 to 5000 nM.

Turning to `O=C(Nc1ccc(F)c(Cl)c1F)N1C2CCC1c1ccnc(F)c1C2` (racemic) [Compound 154, (±)-N-(3-Chloro-2,4-difluorophenyl)-1-fluoro-6,7,8,9-tetrahydro-5H-5,8-epiminocyclohepta[c]pyridine-10-carboxamide], the IC50 under setting [1] lay within 500 to 5000 nM.

As for `O=C(Nc1cccc(F)c1)N1C2CCC1c1ccnc(F)c1C2` (racemic) [Compound 155, (±)-1-Fluoro-N-(3-fluorophenyl)-6,7,8,9-tetrahydro-5H-5,8-epiminocyclohepta[c]pyridine-10-carboxamide], the IC50 under setting [1] was 500 to 5000 nM.

Regarding `O=C(Nc1cccc(C(F)(F)F)c1)N1C2CCC1c1ccnc(F)c1C2` (racemic) [Compound 156, (±)-1-Fluoro-N-(3-(trifluoromethyl)phenyl)-6,7,8,9-tetrahydro-5H-5,8-epiminocyclohepta[c]pyridine-10-carboxamide], the IC50 was below 500 nM.

Take `O=C(Nc1ccc(OC(F)(F)F)cc1)N1C2CCC1c1ccnc(F)c1C2` (racemic) [Compound 157, (±)-1-Fluoro-N-(4-(trifluoromethoxy)phenyl)-6,7,8,9-tetrahydro-5H-5,8-epiminocyclohepta[c]pyridin-10-carboxamide]: the IC50 is below 500 nM.

Take `O=C(Nc1ccc(-c2ccccc2)cc1)N1C2CCC1c1ccnc(F)c1C2` (racemic) [Compound 158, (±)-N-([1,1′-Biphenyl]-4-yl)-1-fluoro-6,7,8,9-tetrahydro-5H-5,8-epiminocyclohepta[c]pyridine-10-carboxamide]: the IC50 was below 500 nM.

For `O=C(Nc1cc(C(F)(F)F)cc(C(F)(F)F)c1)N1C2CCC1c1ccnc(F)c1C2` (racemic) [Compound 159, (±)-N-(3,5-Bis(trifluoromethyl)phenyl)-1-fluoro-6,7,8,9-tetrahydro-5H-5,8-epiminocyclohepta[c]pyridine-10-carboxamide], the half-maximal inhibitory concentration (IC50) under setting [1] is 500 to 5000 nM.

Consider `Cc1ccc(NC(=O)N2C3CCC2c2ccnc(F)c2C3)cc1C(F)(F)F` (racemic) [Compound 160, (±)-1-Fluoro-N-(4-methyl-3-(trifluoromethyl)phenyl)-6,7,8,9-tetrahydro-5H-5,8-epiminocyclohepta[c]pyridine-10-carboxamide], for which the IC50 was below 500 nM.

Consider `O=C(Nc1cccc(Cl)c1Cl)N1C2CCC1c1ccnc(F)c1C2` (racemic) [Compound 161, (±)-N-(2,3-Dichlorophenyl)-1-fluoro-6,7,8,9-tetrahydro-5H-5,8-epiminocyclohepta[c]pyridine-10-carboxamide], for which the IC50 under setting [1] was 500 to 5000 nM.

In the case of `O=C(Nc1ccc(F)cc1F)N1C2CCC1c1ccnc(F)c1C2` (racemic) [Compound 162, (±)-N-(2,4-Difluorophenyl)-1-fluoro-6,7,8,9-tetrahydro-5H-5,8-epiminocyclohepta[c]pyridin-10-carboxamide], under setting [1], the IC50 lay in the range of 500 to 5000 nM.

For the compound `N#Cc1ccc(NC(=O)N2C3CCC2c2ccnc(F)c2C3)cc1C(F)(F)F` (racemic) [Compound 163, (±)-N-(4-Cyano-3-(trifluoromethyl)phenyl)-1-fluoro-6,7,8,9-tetrahydro-5H-5,8-epiminocyclohepta[c]pyridine-10-carboxamide], the 50% inhibitory concentration (IC50) is below 500 nM.

Turning to `O=C(Nc1cc(Cl)cc(C(F)(F)F)c1)N1C2CCC1c1ccnc(F)c1C2` (racemic) [Compound 164, (±)-N-(3-Chloro-5-(trifluoromethyl)phenyl)-1-fluoro-6,7,8,9-tetrahydro-5H-5,8-epiminocyclohepta[c]pyridine-10-carboxamide], the half-inhibitory concentration (IC50) was below 500 nM.

`N#Cc1cc(NC(=O)N2C3CCC2c2ccnc(F)c2C3)ccc1F` (racemic) [Compound 165, (±)-N-(3-Cyano-4-fluorophenyl)-1-fluoro-6,7,8,9-tetrahydro-5H-5,8-epiminocyclohepta[c]pyridine-10-carboxamide]: the IC50 under setting [1] fell in the range of 500 to 5000 nM.

For the compound `O=C(Nc1cc(Cl)c(Cl)c(Cl)c1)N1C2CCC1c1ccnc(F)c1C2` (racemic) [Compound 166, (±)-1-Fluoro-N-(3,4,5-trichlorophenyl)-6,7,8,9-tetrahydro-5H-5,8-epiminocyclohepta[c]pyridine-10-carboxamide], the IC50 was below 500 nM.

For the compound `Cc1cc(NC(=O)N2C3CCC2c2ccnc(F)c2C3)ccc1C(F)(F)F` (racemic) [Compound 167, (±)-1-Fluoro-N-(3-methyl-4-(trifluoromethyl)phenyl)-6,7,8,9-tetrahydro-5H-5,8-epiminocyclohepta[c]pyridine-10-carboxamide], the half-maximal inhibitory concentration (IC50) is below 500 nM.

For the compound `O=C(Nc1ccc(Br)cc1)N1C2CCC1c1ccnc(F)c1C2` (racemic) [Compound 168, (±)-N-(4-Bromophenyl)-1-fluoro-6,7,8,9-tetrahydro-5H-5,8-epiminocyclohepta[c]pyridine-10-carboxamide], the IC50 is below 500 nM.

Consider `O=C(Nc1ccc(OC(F)F)cc1)N1C2CCC1c1ccnc(F)c1C2` (racemic) [Compound 169, (±)-N-(4-(Difluoromethoxy)phenyl)-1-fluoro-6,7,8,9-tetrahydro-5H-5,8-epiminocyclohepta[c]pyridine-10-carboxamide], for which the IC50 under setting [1] lay in the range of 500 to 5000 nM.

For `O=C(Nc1cccc(Br)c1)N1C2CCC1c1ccnc(F)c1C2` (racemic) [Compound 170, (±)-N-(3-Bromophenyl)-1-fluoro-6,7,8,9-tetrahydro-5H-5,8-epiminocyclohepta[c]pyridine-10-carboxamide], the IC50 was below 500 nM.

Regarding `O=C(Nc1cccc(OC(F)(F)F)c1)N1C2CCC1c1ccnc(F)c1C2` (racemic) [Compound 171, (±)-1-Fluoro-N-(3-(trifluoromethoxy)phenyl)-6,7,8,9-tetrahydro-5H-5,8-epiminocyclohepta[c]pyridine-10-carboxamide], the IC50 was below 500 nM.

As for `O=C(Nc1ccc(F)c(Br)c1)N1C2CCC1c1ccnc(F)c1C2` (racemic) [Compound 172, (±)-N-(3-Bromo-4-fluorophenyl)-1-fluoro-6,7,8,9-tetrahydro-5H-5,8-epiminocyclohepta[c]pyridine-10-carboxamide], the half-maximal inhibitory concentration (IC50) is below 500 nM.

For `O=C(Nc1cc(F)cc(F)c1)N1C2CCC1c1ccnc(F)c1C2` (racemic) [Compound 173, (±)-N-(3,5-Difluorophenyl)-1-fluoro-6,7,8,9-tetrahydro-5H-5,8-epiminocyclohepta[c]pyridine-10-carboxamide], the IC50 under setting [1] lay within 500 to 5000 nM.

Regarding `O=C(Nc1cc(Cl)ccc1F)N1C2CCC1c1ccnc(F)c1C2` (racemic) [Compound 174, (±)-N-(5-Chloro-2-fluorophenyl)-1-fluoro-6,7,8,9-tetrahydro-5H-5,8-epiminocyclohepta[c]pyridine-10-carboxamide], the IC50 is below 500 nM.

In the case of `O=C(Nc1ccc(F)c(F)c1F)N1C2CCC1c1ccnc(F)c1C2` (racemic) [Compound 175, (±)-1-Fluoro-N-(2,3,4-trifluorophenyl)-6,7,8,9-tetrahydro-5H-5,8-epiminocyclohepta[c]pyridin-10-carboxamide], the IC50 under setting [1] was 500 to 5000 nM.

In the case of `N#Cc1ccc(NC(=O)N2C3CCC2c2ccnc(F)c2C3)cc1` (racemic) [Compound 176, (±)-N-(4-Cyanophenyl)-1-fluoro-6,7,8,9-tetrahydro-5H-5,8-epiminocyclohepta[c]pyridine-10-carboxamide], under setting [1], the 50% inhibitory concentration (IC50) lay in the range of 500 to 5000 nM.

Consider `O=C(Nc1ccc(Cl)cc1F)N1C2CCC1c1ccnc(F)c1C2` (racemic) [Compound 177, (±)-N-(4-Chloro-2-fluorophenyl)-1-fluoro-6,7,8,9-tetrahydro-5H-5,8-epiminocyclohepta[c]pyridine-10-carboxamide], for which the IC50 was below 500 nM.

As for `O=C(Nc1ccc(F)c(Cl)c1)N1C2CCC1c1ccnc(F)c1C2` (racemic) [Compound 178, (±)-N-(3-Chloro-4-fluorophenyl)-1-fluoro-6,7,8,9-tetrahydro-5H-5,8-epiminocyclohepta[c]pyridine-10-carboxamide], the half-inhibitory concentration (IC50) was below 500 nM.

Take `O=C(Nc1cc(Cl)c(Cl)cc1F)N1C2CCC1c1ccc(F)nc1C2` (racemic) [Compound 181, (±)-N-(4,5-Dichloro-2-fluorophenyl)-2-fluoro-6,7,8,9-tetrahydro-5H-5,8-epiminocyclohepta[b]pyridine-10-carboxamide]: the IC50 is below 500 nM.

Turning to `O=C(Nc1cc(Cl)c(C(F)(F)F)cc1F)N1C2CCC1c1ccc(F)nc1C2` (racemic) [Compound 182, (±)-N-(5-Chloro-2-fluoro-4-(trifluoromethyl)phenyl)-2-fluoro-6,7,8,9-tetrahydro-5H-5,8-epiminocyclohepta[b]pyridine-10-carboxamide], the IC50 was below 500 nM.

With `O=C(Nc1cc(Cl)c(C(F)(F)F)cc1F)N1C2CCC1c1ccc(=O)[nH]c1C2` (racemic) [Compound 189, (±)-N-(5-Chloro-2-fluoro-4-(trifluoromethyl)phenyl)-2-oxo-2,5,6,7,8,9-hexahydro-1H-5,8-epiminocyclohepta[b]pyridine-10-carboxamide], the 50% inhibitory concentration (IC50) is below 500 nM.

Turning to `O=C(Nc1cc(Cl)c(Cl)cc1F)N1C2CCC1c1cnncc1C2` (racemic) [Compound 193, (±)-N-(4,5-Dichloro-2-fluorophenyl)-6,7,8,9-tetrahydro-5H-5,8-epiminocyclohepta[d]pyridazine-10-carboxamide], under setting [1], the IC50 is 500 to 5000 nM.
